{"source": "patent US8969356B2", "about": "“Compounds useful as inhibitors of ATR kinase” (Vertex Pharmaceuticals Incorporated, priority 2010, dated 2015)", "key": {"ATR kinase": {"target": "T1, ATR kinase (Homo sapiens, UniProt Q13535)", "T1 construct": "Assays were carried out at 25° C. in the presence of 5 nM full-length ATR", "T1 sequence (Q13535 whole entry)": "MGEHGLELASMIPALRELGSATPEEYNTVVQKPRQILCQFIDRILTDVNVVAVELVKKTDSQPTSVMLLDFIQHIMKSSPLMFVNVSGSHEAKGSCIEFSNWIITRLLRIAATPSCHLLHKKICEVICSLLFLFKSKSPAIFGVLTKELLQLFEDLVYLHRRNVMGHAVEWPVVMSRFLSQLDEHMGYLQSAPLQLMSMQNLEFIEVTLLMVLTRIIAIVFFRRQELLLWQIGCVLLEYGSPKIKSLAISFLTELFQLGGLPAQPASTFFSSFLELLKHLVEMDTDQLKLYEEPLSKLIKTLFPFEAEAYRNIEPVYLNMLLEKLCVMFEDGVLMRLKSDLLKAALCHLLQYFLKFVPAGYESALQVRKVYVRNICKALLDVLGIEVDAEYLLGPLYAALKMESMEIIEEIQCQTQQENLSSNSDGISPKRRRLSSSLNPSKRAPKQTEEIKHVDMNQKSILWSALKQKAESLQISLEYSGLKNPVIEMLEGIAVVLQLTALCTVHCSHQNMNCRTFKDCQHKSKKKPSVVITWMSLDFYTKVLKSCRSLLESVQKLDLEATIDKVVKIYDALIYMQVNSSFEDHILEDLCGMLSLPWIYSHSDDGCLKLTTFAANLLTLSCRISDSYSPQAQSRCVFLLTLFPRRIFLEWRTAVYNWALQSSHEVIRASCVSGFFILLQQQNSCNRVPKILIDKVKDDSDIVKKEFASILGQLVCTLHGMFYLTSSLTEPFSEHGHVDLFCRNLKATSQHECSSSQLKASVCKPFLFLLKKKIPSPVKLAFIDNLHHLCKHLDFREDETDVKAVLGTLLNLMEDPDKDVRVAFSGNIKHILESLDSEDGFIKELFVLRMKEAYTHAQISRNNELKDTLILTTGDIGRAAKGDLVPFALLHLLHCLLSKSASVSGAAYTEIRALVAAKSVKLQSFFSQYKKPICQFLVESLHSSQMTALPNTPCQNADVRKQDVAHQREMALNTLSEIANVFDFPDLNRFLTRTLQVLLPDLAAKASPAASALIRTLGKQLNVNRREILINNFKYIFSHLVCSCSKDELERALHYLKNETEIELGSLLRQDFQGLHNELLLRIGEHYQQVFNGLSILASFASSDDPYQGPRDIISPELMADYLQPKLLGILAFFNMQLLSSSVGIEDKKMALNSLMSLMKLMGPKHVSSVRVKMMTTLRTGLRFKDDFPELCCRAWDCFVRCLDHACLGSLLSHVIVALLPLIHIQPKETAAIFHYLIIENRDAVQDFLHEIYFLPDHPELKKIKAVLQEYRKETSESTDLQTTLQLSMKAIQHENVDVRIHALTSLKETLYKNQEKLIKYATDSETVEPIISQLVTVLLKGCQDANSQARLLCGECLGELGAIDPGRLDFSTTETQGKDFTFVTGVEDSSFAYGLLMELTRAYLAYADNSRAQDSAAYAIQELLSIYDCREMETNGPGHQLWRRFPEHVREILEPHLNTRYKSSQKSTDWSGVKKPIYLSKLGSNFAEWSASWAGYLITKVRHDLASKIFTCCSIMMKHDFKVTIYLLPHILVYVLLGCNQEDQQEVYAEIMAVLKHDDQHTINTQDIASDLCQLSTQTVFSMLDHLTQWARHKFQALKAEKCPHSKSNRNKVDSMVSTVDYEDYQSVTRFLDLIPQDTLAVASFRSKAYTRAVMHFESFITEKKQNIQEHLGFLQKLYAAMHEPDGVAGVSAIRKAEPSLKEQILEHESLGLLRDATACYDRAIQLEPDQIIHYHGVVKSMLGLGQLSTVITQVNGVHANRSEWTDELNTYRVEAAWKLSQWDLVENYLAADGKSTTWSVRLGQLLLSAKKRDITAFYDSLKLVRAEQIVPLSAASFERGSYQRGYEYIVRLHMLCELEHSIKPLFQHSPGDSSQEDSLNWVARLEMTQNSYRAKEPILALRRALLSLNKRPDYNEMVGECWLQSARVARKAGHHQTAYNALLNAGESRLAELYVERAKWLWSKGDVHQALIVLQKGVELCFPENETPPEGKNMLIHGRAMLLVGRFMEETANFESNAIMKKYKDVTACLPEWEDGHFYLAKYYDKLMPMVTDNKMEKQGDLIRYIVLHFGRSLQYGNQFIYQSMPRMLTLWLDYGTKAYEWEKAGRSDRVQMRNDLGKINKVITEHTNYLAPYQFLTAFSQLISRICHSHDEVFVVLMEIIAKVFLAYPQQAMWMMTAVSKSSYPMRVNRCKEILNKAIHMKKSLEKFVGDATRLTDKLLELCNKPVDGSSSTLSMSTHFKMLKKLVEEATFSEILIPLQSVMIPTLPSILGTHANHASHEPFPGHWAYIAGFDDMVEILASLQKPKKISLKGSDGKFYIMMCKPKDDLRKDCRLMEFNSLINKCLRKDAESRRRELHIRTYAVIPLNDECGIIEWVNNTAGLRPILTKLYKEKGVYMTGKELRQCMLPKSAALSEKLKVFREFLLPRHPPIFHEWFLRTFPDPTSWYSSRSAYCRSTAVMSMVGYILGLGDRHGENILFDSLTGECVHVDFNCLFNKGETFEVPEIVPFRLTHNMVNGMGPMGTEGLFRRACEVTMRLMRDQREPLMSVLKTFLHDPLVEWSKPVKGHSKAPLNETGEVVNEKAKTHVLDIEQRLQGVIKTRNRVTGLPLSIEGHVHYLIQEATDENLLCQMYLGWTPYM", "assay": "ATR Inhibition Assay (radioactive-phosphate incorporation)", "format": "biochemical", "method": "Compounds were screened for their ability to inhibit ATR kinase using a radioactive-phosphate incorporation assay. Assays were carried out in a mixture of 50 mM Tris/HCl (pH 7.5), 10 mM MgCl2 and 1 mM DTT. Final substrate concentrations were 10 μM [γ-33P]ATP (3mCi 33P ATP/mmol ATP, Perkin Elmer) and 800 μM target peptide ([…] (SEQ. ID NO: 1)).\nAssays were carried out at 25° C. in the presence of 5 nM full-length ATR. An assay stock buffer solution was prepared containing all of the reagents listed above, with the exception of ATP and the test compound of interest. 13.5 μL of the stock solution was placed in a 96 well plate followed by addition of 2 μL of DMSO stock containing serial dilutions of the test compound (typically starting from a final concentration of 15 μM with 3-fold serial dilutions) in duplicate (final DMSO concentration 7%). The plate was pre-incubated for 10 minutes at 25° C. and the reaction initiated by addition of 15 μL [γ-33P]ATP (final concentration 10 μM).\nThe reaction was stopped after […] by the addition of 30 μL 0.1M phosphoric acid containing 2 mM ATP. A multiscreen phosphocellulose filter 96-well plate (Millipore, Cat no. MAPHN0B50) was pretreated with 100 μL 0.2M phosphoric acid prior to the addition of 45 μL of the stopped assay mixture. The plate was washed with 5×200 μL 0.2M phosphoric acid. After drying, 100 μL Optiphase ‘SuperMix’ liquid scintillation cocktail (Perkin Elmer) was added to the well prior to scintillation counting (1450 Microbeta Liquid Scintillation Counter, Wallac).\nAfter removing mean background values for all of the data points, Ki(app) data were calculated from non-linear regression analysis of the initial rate data using the Prism software package (GraphPad Prism version 3.0cx for Macintosh, GraphPad Software, San Diego Calif., USA)."}, "[1]": {"system": "HCT116 colorectal cancer cells", "assay": "Cisplatin Sensitization Assay (96 h cell viability MTS)", "format": "cell-based", "conditions": "concentration of compound required to reduce the IC50 of Cisplatin alone by at least 3-fold; HCT116, 96 h MTS", "method": "Compounds can be screened for their ability to sensitize HCT116 colorectal cancer cells to Cisplatin using a 96 h cell viability (MTS) assay. […] Compounds and Cisplatin are then both added simultaneously to the cell media in 2-fold serial dilutions from a top final concentration of 10 μM as a full matrix of concentrations in a final cell volume of 200 μl, and the cells are then incubated at 37° C. in 5% CO2. After 96 h, 40 μl of MTS reagent (Promega G358a) is added to each well and the cells are incubated for 1 h at 37° C. in 5% CO2."}}}
{"smiles": "CC(C)S(=O)(=O)c1ccc(-c2cnc(N)c(C#Cc3cccs3)n2)cc1", "note": "[Compound I-22, 5-(4-Isopropylsulfonylphenyl)-3-[2-(2-thienyl)ethynyl]pyrazin-2-amine]", "values": [{"measurement": "Ki", "setting": "ATR kinase", "result": "≤ 100", "unit": "nM"}, {"measurement": "CP3 Shift", "setting": "[1]", "result": 1.25, "unit": "µM"}]}
{"smiles": "CC(C)S(=O)(=O)c1ccc(-c2cnc(N)c(C#Cc3ccccc3)n2)cc1", "note": "[Compound I-7, 5-(4-Isopropylsulfonylphenyl)-3-(2-phenylethynyl)pyrazin-2-amine]", "values": [{"measurement": "Ki", "setting": "ATR kinase", "result": "≤ 100", "unit": "nM"}, {"measurement": "CP3 Shift", "setting": "[1]", "result": 2.5, "unit": "µM"}]}
{"smiles": "CC(C)S(=O)(=O)c1ccc(-c2cnc(N)c(C#Cc3cccc(N)c3)n2)cc1", "note": "[Compound I-21, 3-[2-(3-Aminophenyl)ethynyl]-5-(4-isopropylsulfonylphenyl)pyrazin-2-amine]", "values": [{"measurement": "Ki", "setting": "ATR kinase", "result": "≤ 100", "unit": "nM"}, {"measurement": "CP3 Shift", "setting": "[1]", "result": 0.312, "unit": "µM"}]}
{"smiles": "CC(C)S(=O)(=O)c1ccc(-c2cnc(N)c(C#Cc3ccccn3)n2)cc1", "note": "[Compound I-33, 5-(4-Isopropylsulfonylphenyl)-3-[2-(2-pyridyl)ethynyl]pyrazin-2-amine]", "values": [{"measurement": "Ki", "setting": "ATR kinase", "result": "≤ 100", "unit": "nM"}, {"measurement": "CP3 Shift", "setting": "[1]", "result": 2.5, "unit": "µM"}]}
{"smiles": "CC(C)S(=O)(=O)c1ccc(-c2cnc(N)c(C#Cc3cccc(O)c3)n2)cc1", "note": "[Compound I-35, 3-[2-[3-Amino-6-(4-isopropylsulfonylphenyl)pyrazin-2-yl]ethynyl]phenol]", "values": [{"measurement": "Ki", "setting": "ATR kinase", "result": "≤ 100", "unit": "nM"}, {"measurement": "CP3 Shift", "setting": "[1]", "result": 0.118, "unit": "µM"}]}
{"smiles": "CC(C)S(=O)(=O)c1ccc(-c2cnc(N)c(C#Cc3ccccc3F)n2)cc1", "note": "[Compound I-40, 3-((2-fluorophenyl)ethynyl)-5-(4-(isopropylsulfonyl)phenyl)pyrazin-2-amine]", "values": [{"measurement": "Ki", "setting": "ATR kinase", "result": "≤ 100", "unit": "nM"}, {"measurement": "CP3 Shift", "setting": "[1]", "result": 2.5, "unit": "µM"}]}
{"smiles": "CC(C)S(=O)(=O)c1ccc(-c2cnc(N)c(C#Cc3cccc(OCCCN(C)C)c3)n2)cc1", "note": "[Compound I-20, 3-[2-[3-[3-(Dimethylamino)propoxy]phenyl]ethynyl]-5-(4-isopropylsulfonylphenyl)pyrazin-2-amine]", "values": [{"measurement": "Ki", "setting": "ATR kinase", "result": "≤ 100", "unit": "nM"}]}
{"smiles": "CC(C)S(=O)(=O)c1ccc(-c2cnc(N)c(C#Cc3cccc(OCCN4CCOCC4)c3)n2)cc1", "note": "[Compound I-36, 5-(4-Isopropylsulfonylphenyl)-3-[2-[3-(2-morpholinoethoxy)phenyl]ethynyl]pyrazin-2-amine]", "values": [{"measurement": "Ki", "setting": "ATR kinase", "result": "100 to 1000", "unit": "nM"}]}
{"smiles": "Nc1ncc(-c2ccc(S(=O)(=O)C3CCOCC3)cc2)nc1C#Cc1cccc(O)c1", "note": "[Compound I-34, 3-[2-[3-Amino-6-(4-tetrahydropyran-4-ylsulfonylphenyl)pyrazin-2-yl]ethynyl]phenol]", "values": [{"measurement": "Ki", "setting": "ATR kinase", "result": "≤ 100", "unit": "nM"}, {"measurement": "CP3 Shift", "setting": "[1]", "result": 0.079, "unit": "µM"}]}
{"smiles": "Cc1cccc(C#Cc2nc(-c3ccc(S(=O)(=O)C(C)C)cc3)cnc2N)c1", "note": "[Compound I-11, 5-(4-Isopropylsulfonylphenyl)-3-[2-(m-tolyl)ethynyl]pyrazin-2-amine]", "values": [{"measurement": "Ki", "setting": "ATR kinase", "result": "≤ 100", "unit": "nM"}]}
{"smiles": "C#Cc1nc(-c2ccc(S(=O)(=O)C(C)C)cc2)cnc1N", "note": "[Compound I-5, 3-Ethynyl-5-(4-isopropylsulfonylphenyl)pyrazin-2-amine]", "values": [{"measurement": "Ki", "setting": "ATR kinase", "result": "100 to 1000", "unit": "nM"}]}
{"smiles": "CC(C)S(=O)(=O)c1ccc(-c2cnc(N)c(C#C[C@@H](C)O)n2)cc1", "note": "[Compound I-4, (2R)-4-[3-Amino-6-(4-isopropylsulfonylphenyl)pyrazin-2-yl]but-3-yn-2-ol]", "values": [{"measurement": "Ki", "setting": "ATR kinase", "result": "100 to 1000", "unit": "nM"}]}
